Data published in patent US9752049B2, “Optically transparent, superhydrophobic, biocompatible thin film coatings and methods for producing same” (UT-BATTELLE, LLC, priority 2014, dated 2017).
In brackets after ≈: the same amount, converted by molar mass.

Assay: physchem
Details: organic solvent or mixture, Solubility Limit
From the text: The first step was to gather solubility data on the fatty acids in readily available solvents. […] The available solvents included ethanol, isopropanol, hexane, and acetone.
The next step was to use spin-coating to apply the optimum mixture of each fatty acid/alcohol solution to microscope slides. This process began with cleaning the slide, then affixing it to the spin-coater by turning on the internal vacuum. Once the slide was in place, the chosen solution was applied by a syringe using a 0.02 micron filter. This filter was to ensure that only the pure solution and no contaminants or occasional precipitates made it onto the slide. The coated slide was then spun at 1000 rpm for thirty seconds and placed on a hot plate at 152 degrees Fahrenheit to vaporize any remaining solvent. The slide was allowed to cool for two minutes. Once cool, the slide was subjected to a simple yet effective test of hydrophobicity. This test consisted of merely placing a water droplet on the slide using a Pasteur pipet and eyeballing it to see if it even merited further characterization. This process was repeated for many slides, each time varying the type of fatty acid and the solvent as well as the concentration of the fatty acid in the solvent. […] Below is additional solubility data for Behenic Acid: […]

CCCCCCCCCCCCCC(=O)O [Myristic Acid]
solubility: 300 mM (≈ 68.5 mg/mL)
